Test results taken from patent US9513294B2, “Megastokes amino-triazolyl-BODIPY compounds and applications to live neuron staining and human serum albumin FA1 drug site probing” (National University of Singapore, priority 2012, dated 2016).

Assays:
[1] = Quantum yield measurements versus Acridine Yellow in EtOH; type: physicochemical; conditions: for φ (%): quantum yield; for φ (quantum yield): excitation 460 nm
In short: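 Emission areas integrated over 510–700 nm were compared with Acridine Yellow in ethanol (Φ=0.47), all excited at 460 nm. The comparative equation was normalized to excitation-wavelength absorbance and solvent refractive index.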

[2] = Absorbance and fluorescence emission spectra (SpectraMax M2); type: physicochemical; conditions: for λmax Absorp. (nm) / λmax Emission (nm): MKCA compound library; for λmax Absorp. (nm) / λmax Abs. (nm): absorbance maximum; for λmax Emission (nm) / λmax Em. (nm): fluorescence emission maximum; for λmax Abs. (nm) / λmax Em. (nm): MKAC compound library
In short: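 Spectroscopic data, including quantum yields, were recorded with a SpectraMax M2 instrument and analysed in GraphPrism.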

Question: For O=C(CCl)Nc1ccc(C2=C3C=CC(N4CCc5ccccc5C4)=[N+]3[B-](F)(F)n3c2ccc3-n2cc(CC3CCCCC3)nn2)cc1 [MKCA66-8], which “φ (%)” value ([1]; MKCA compound library) is on record?
Answer: 3.05%

Question: What about the “λmax Absorp. (nm)” value [2] of the same compound?
Answer: 469 nm

Question: And the “λmax Emission (nm)” value [2]?
Answer: 582 nm

Question: Which results are given for CN(Cc1ccccc1)C1=[N+]2C(=C(c3ccc(NC(=O)CCl)cc3)c3ccc(-n4cc(CO)nn4)n3[B-]2(F)F)C=C1 [MKCA195-70]?
Answer: φ (%) ([1]; MKCA compound library): 2.58%; λmax Absorp. (nm) [2]: 465 nm; λmax Emission (nm) [2]: 581 nm

Question: What does the source list for COc1ccc(OC)c(CNC2=[N+]3C(=C(c4ccc(NC(C)=O)cc4)c4ccc(-n5cc(CCc6ccccc6)nn5)n4[B-]3(F)F)C=C2)c1 [MKAC181-19]?
Answer: φ (%) ([1]; MKAC compound library): 14.0%; λmax Abs. (nm) [2]: 464 nm; λmax Em. (nm) [2]: 561 nm

Question: What does the source list for CC(=O)Nc1ccc(C2=C3C=CC(N4CC(C)OC(C)C4)=[N+]3[B-](F)(F)n3c2ccc3-n2cc(CN(C)Cc3ccccc3)nn2)cc1 (stereo not drawn) [MKAC20-18]?
Answer: φ (%) ([1]; MKAC compound library): 2.13%; λmax Abs. (nm) [2]: 467 nm; λmax Em. (nm) [2]: 583 nm

Question: For CC(=O)Nc1ccc(C2=C3C=CC(N4CC(C)OC(C)C4)=[N+]3[B-](F)(F)n3c2ccc3-n2cc(CC(C)C)nn2)cc1 (stereo not drawn) [MKAC20-43], which “φ (%)” value ([1]; MKAC compound library) is on record?
Answer: 1.55%

Question: And the “λmax Abs. (nm)” value [2]?
Answer: 467 nm

Question: What about the “λmax Em. (nm)” value [2] of the same compound?
Answer: 586 nm

Question: With CC(=O)Nc1ccc(C2=C3C=CC(N4CCCCC4)=[N+]3[B-](F)(F)n3c2ccc3-n2cc(-c3cc(C(F)(F)F)cc(C(F)(F)F)c3)nn2)cc1 [BDCAC-30] as the compound, how does the “φ (quantum yield)” value ([1]; BDCAC library, Table 3) read?
Answer: 3.5%

Question: What about the “λmax Absorp.” value ([2]; BDCAC library, Table 3) of the same compound?
Answer: 459 nm

Question: And the “λmax Emission” value ([2]; BDCAC library, Table 3)?
Answer: 549 nm

Question: Which “φ (%)” value ([1]; MKAC compound library) does the source give for CC(=O)Nc1ccc(C2=C3C=CC(N4CCCC4)=[N+]3[B-](F)(F)n3c2ccc3-n2cc(CN(C)Cc3ccccc3)nn2)cc1 [MKAC215-18] here?
Answer: 1.54%

Question: What about the “λmax Abs. (nm)” value [2] of the same compound?
Answer: 461 nm

Question: And the “λmax Em. (nm)” value [2]?
Answer: 569 nm

Question: What does the source list for CC1CN(C2=[N+]3C(=C(c4ccc(NC(=O)CCl)cc4)c4ccc(-n5cc(CN(C)Cc6ccccc6)nn5)n4[B-]3(F)F)C=C2)CC(C)O1 (stereo not drawn) [MKCA20-18]?
Answer: φ (%) ([1]; MKCA compound library): 2.54%; λmax Absorp. (nm) [2]: 466 nm; λmax Emission (nm) [2]: 585 nm

Question: With CCCc1cn(-c2ccc3n2[B-](F)(F)[N+]2=C(NCc4cc(F)cc(F)c4)C=CC2=C3c2ccc(N)cc2)nn1 [MK412-48] as the compound, how does the “φ (quantum yield)” value ([1]; MK library, Table 5) read?
Answer: 1.55%

Question: What about the “λmax Absorp.” value ([2]; MK library, Table 5) of the same compound?
Answer: 474 nm

Question: And the “λmax Emission” value ([2]; MK library, Table 5)?
Answer: 563 nm

Question: For CCOc1ccccc1CNC1=[N+]2C(=C(c3ccc(N)cc3)c3ccc(-n4cc(CC(C)C)nn4)n3[B-]2(F)F)C=C1 [MK103-43], which “φ (quantum yield)” value ([1]; MK library, Table 5) is on record?
Answer: 1.30%

Question: What about the “λmax Absorp.” value ([2]; MK library, Table 5) of the same compound?
Answer: 474 nm

Question: What about the “λmax Emission” value ([2]; MK library, Table 5) of the same compound?
Answer: 563 nm

Question: For O=C(CCl)Nc1ccc(C2=C3C=CC(N4CCCCC4)=[N+]3[B-](F)(F)n3c2ccc3-n2cc(-c3ccccc3)nn2)cc1 [BDCCA-9], which “φ (quantum yield)” value ([1]; BDCCA library, Table 4) is on record?
Answer: 1.1%

Question: And the “λmax Absorp.” value ([2]; BDCCA library, Table 4)?
Answer: 464 nm

Question: And the “λmax Emission” value ([2]; BDCCA library, Table 4)?
Answer: 577 nm

Question: Which “φ (quantum yield)” value ([1]; MK library, Table 5) does the source give for CCCc1cn(-c2ccc3n2[B-](F)(F)[N+]2=C(NCc4ccccc4OCC)C=CC2=C3c2ccc(N)cc2)nn1 [MK103-48] here?
Answer: 1.91%

Question: And the “λmax Absorp.” value ([2]; MK library, Table 5)?
Answer: 473 nm

Question: And the “λmax Emission” value ([2]; MK library, Table 5)?
Answer: 563 nm

Question: Which “φ (quantum yield)” value ([1]; BDC library, Table 2) does the source give for Nc1ccc(C2=C3C=CC(N4CCCCC4)=[N+]3[B-](F)(F)n3c2ccc3-n2cc(C3CCCC3)nn2)cc1 [BDC-5] here?
Answer: 0.16%

Question: What about the “λmax Absorp.” value ([2]; BDC library, Table 2) of the same compound?
Answer: 476 nm

Question: And the “λmax Emission” value ([2]; BDC library, Table 2)?
Answer: 582 nm

Question: What does the source list for CCc1ccc(-c2cn(-c3ccc4n3[B-](F)(F)[N+]3=C(N5CCCCC5)C=CC3=C4c3ccc(NC(C)=O)cc3)nn2)cc1 [BDCAC-46]?
Answer: φ (quantum yield) ([1]; BDCAC library, Table 3): 1.4%; λmax Absorp. ([2]; BDCAC library, Table 3): 465 nm; λmax Emission ([2]; BDCAC library, Table 3): 578 nm

Question: With CC(C)Cc1cn(-c2ccc3n2[B-](F)(F)[N+]2=C(NCc4cc(F)cc(F)c4)C=CC2=C3c2ccc(N)cc2)nn1 [MK412-43] as the compound, how does the “φ (quantum yield)” value ([1]; MK library, Table 5) read?
Answer: 0.86%

Question: And the “λmax Absorp.” value ([2]; MK library, Table 5)?
Answer: 476 nm

Question: And the “λmax Emission” value ([2]; MK library, Table 5)?
Answer: 564 nm

Question: Which “φ (%)” value ([1]; MKAC compound library) does the source give for CC(=O)Nc1ccc(C2=C3C=CC(NCc4ccccc4C)=[N+]3[B-](F)(F)n3c2ccc3-n2cc(C3CCCC3)nn2)cc1 [MKAC101-5] here?
Answer: 23.69%

Question: And the “λmax Abs. (nm)” value [2]?
Answer: 466 nm

Question: What about the “λmax Em. (nm)” value [2] of the same compound?
Answer: 563 nm

Question: With CN(Cc1ccccc1)C1=[N+]2C(=C(c3ccc(NC(=O)CCl)cc3)c3ccc(-n4cc(C5CCCC5)nn4)n3[B-]2(F)F)C=C1 [MKCA195-5] as the compound, how does the “φ (%)” value ([1]; MKCA compound library) read?
Answer: 4.93%

Question: What about the “λmax Absorp. (nm)” value [2] of the same compound?
Answer: 467 nm

Question: And the “λmax Emission (nm)” value [2]?
Answer: 580 nm

Question: Which “φ (quantum yield)” value ([1]; MK library, Table 5) does the source give for CC(C)Cc1cn(-c2ccc3n2[B-](F)(F)[N+]2=C(N4CCCC4)C=CC2=C3c2ccc(N)cc2)nn1 [MK215-43] here?
Answer: 0.33%

Question: What about the “λmax Absorp.” value ([2]; MK library, Table 5) of the same compound?
Answer: 471 nm

Question: And the “λmax Emission” value ([2]; MK library, Table 5)?
Answer: 571 nm

Question: For CCCCCc1ccc(-c2cn(-c3ccc4n3[B-](F)(F)[N+]3=C(N5CCCCC5)C=CC3=C4c3ccc(N)cc3)nn2)cc1 [BDC-29], which “φ (quantum yield)” value ([1]; BDC library, Table 2) is on record?
Answer: 0.23%

Question: And the “λmax Absorp.” value ([2]; BDC library, Table 2)?
Answer: 471 nm

Question: And the “λmax Emission” value ([2]; BDC library, Table 2)?
Answer: 586 nm

Question: With CC(=O)Nc1ccc(C2=C3C=CC(NCc4cc(F)cc(F)c4)=[N+]3[B-](F)(F)n3c2ccc3-n2cc(CC3CCCCC3)nn2)cc1 [MKAC412-8] as the compound, how does the “φ (%)” value ([1]; MKAC compound library) read?
Answer: 16.81%

Question: What about the “λmax Abs. (nm)” value [2] of the same compound?
Answer: 467 nm

Question: What about the “λmax Em. (nm)” value [2] of the same compound?
Answer: 562 nm
